The test system of experiment [1] is human T-cells. Briefly: Suppression of Human T-Cell Proliferation Assay (PHA-stimulated, [3H]-thymidine incorporation). It is filed as cell-based. As to conditions: for IC50: inhibition of [3H]-thymidine incorporation of PHA-stimulated purified human T-cells, 72 hours. An excerpt: Inhibition of mitogen-induced T-cell proliferation can be used to profile immunosuppressive activity of test compounds. In the description of the assay which follows, mitogen-induced T-cell proliferation was used to test the inhibitory potencies of select compounds of the present invention.
In an assay similar to that described by Bradley in Mishell et al. (Eds.), 1980, Selected Methods in Cellular Immunology, pp 156-161, W. H. Freeman & Co., San Fransisco, Calif., T-cells were stimulated by incubation with phytohemagglutinin (PHA) which binds to cell surface molecules, including the T-cell receptor. This stimulation results in proliferation which can be measured by incorporation of [^3 H]-thymidine into cellular DNA.
Fresh LeukoPaks were obtained from the New York Blood Center, New York, N.Y. The cells, including erythrocytes and leukocytes, were diluted with Hank's Balanced Salt Solution (HBSS) (GIBCO, Grand Island, N.Y.) and layered over Lymphoprep (Nycomed Pharma AS, Oslo, Norway) in sterile 50 ml conical centrifuge tubes. Lymphocytes were isolated at the Hank's/Nycomed interface after centrifugation at 2000×g, 4° C. for 15 min. The lymphocytes were washed with Minimal Essential Medium (GIBCO) containing 2% fetal bovine serum (FBS) (Sigma Chemical Co., St. Louis, Mo.), 1% HEPES buffer (GIBCO) and 1% Penicillin-Stretomycin solution (GIBCO).
T-cells were further purified essentially by sheep erythrocyte (SRBC) rosetting as described by Morimoto et al., 1983, J. Immunol. 130:157. The isolated lymphocytes were adjusted to 2×10^7 cells/ml and 5 ml aliquots of the cell suspension were incubated for 10 minutes at room temperature with 5 ml of a 5% SRBC (Cappel, Organon Technika Corp., West Chester, Pa.) suspension. The cells were gently pelleted by centrifugation at 300 rpm for 10 minutes, followed by a 1 hour incubation at room temperature to allow rosette formation. The cells were gently resuspended,layered over Lymphoprep and centrifuged for 30 minutes at 500×g. The pellet, containing rosetted T-cells and SRBC was treated with ice cold buffered ammonium chloride (GIBCO) to lyse the erythrocytes. T-cells were washed twice with HBSS.
Purified T-cells were resuspended at 2×10^6 cells/ml in complete culture medium composed of RPMI-1640 (Whittaker Bioproducts, Walkerville, Md.) with 10% FBS (Sigma), 2 mM L-glutamine (GIBCO), 1% Penicillin-Streptomycin (GIBCO) and 15 mM HEPES (GIBCO). In 96-well plates (Becton Dickinson, Lincoln Park, N.J.), 0.1 ml aliquots of T-cell suspension were mixed with 0.05 ml of 40 μg/ml PHA-M (Sigma). The compounds of this invention were dissolved in dimethylsulfoxide at 10 mM and various dilutions in complete medium were added in duplicate wells (0.05 ml/well). The plates were incubated at 37° C. in a humidified atmosphere of 5% carbon dioxide and 95% air for 72 hours.
Proliferation was assessed by measurement of [^3 H]-thymidine incorporation. During the last 6 hours of incubation, the cells were pulse labelled with 1 μCi/well of [^3 H]-thymidine (New England Nuclear, Boston, Mass.). The cells were harvested onto glass fiber paper using a plate harvester and the radioactivity incorporated into cellular DNA corresponding to individual wells was measured by standard liquid scintillation counting methods. The mean counts per minute (CPM) of replicate wells was calculated and linear regression analysis of mean CPM versus compound concentration was used to determine the concentration of compound which would inhibit [^3 H]-thymidine incorporation of T-cells by 50% (IC50).

For experiment [2], the system named is Lewis rats. Description: Adjuvant Arthritis Model in the Rat. The format is in vivo. The settings on record: for % Inhibition: inhibition of swelling in uninjected limb vs vehicle control, 10 mg/kg/dose i.p.; for ΔAnkle Diameter: uninjected hind paw, day 0 to day 16, 10 mg/kg/dose i.p. on days -1, 0, 2, 5, 7, 9, 12 and 14. The procedure: Complete Freund's adjuvant is made by supplementing extra heavy mineral oil with 10 mg/ml heat killed Mycobacterium butyricum (Difco Laboratories, Detroit, Mich.). Lewis rats (Charles Rivers, Willmington, Mass.) are given a 0.1 ml injection of adjuvant (1 mg/animal mycobacterium) subcutaneously into the right hind footpad. In the injected foot, an acute inflammatory reaction occurs which is characterized by erythema, edema and a predominantly neutrophilic cell infiltrate. This is followed by edema in the uninjected contralateral foot by days 10-12. This secondary response is accompanied by a predominantly mononuclear cell infiltrate, indicating the presence of cell-mediated immunity.
The immune response is quantitated by measuring the change in ankle diameter of the uninjected hind paw from day 0 to day 16 post sensitization. This is accomplished using a hand-held dial micrometer. Animals are administered test drugs, suspended in a vehicle consisting of 5% polyethylene glycol and 0.5% Tween-80 (Sigma Chemical Co., St. Louis, Mo.) in phosphate buffered saline (GIBCO, Grand Island, N.Y.), i.p. on days -1, 0, 2, 5, 7, 9, 12 and 14. Several compounds when administered at 10 mg/kg/dose inhibited the swelling in the uninjected limb compared with the control groups that were sensitized with Complete Freund's Adjuvant but received only the vehicle i.p. (Table 4).

Each structure is given as a SMILES string.

Turning to `CC[C@H](C)[C@H](NC(=O)[C@@H]1CCCN1C[C@@H](NC(=O)OC(C)(C)C)C(C)C)C(=O)NCc1ccccc1` [Example 17, 1-[1-[2-(S)-[[(1,1-dimethylethoxy)carbonyl]amino]-3-methylbutyl]-L-proline] -L-isoleucine Benzylamide], in experiment [1], the “inhibition of mitogen induced T-cell proliferation” value was “inhibited mitogen induced T-cell proliferation” and half-maximal inhibition (IC50) was put at 14 µM. Turning to `CC[C@H](C)[C@H](NC(=O)[C@@H]1CCCCN1C[C@H](CC(C)C)NC(=O)OC(C)(C)C)C(=O)NCc1ccccc1` [Example 18, 1-[1-[2-(S)-[[(1,1-Dimethylethoxy)carbonyl]amino]-4-methylpentyl]-L-homoproline]-L-isoleucine Benzylamide], the IC50 in experiment [1] came out at 4 µM. `CC[C@H](C)[C@H](NC(=O)[C@@H]1CCCCN1C[C@@H](NC(=O)OC(C)(C)C)[C@@H](C)CC)C(=O)NCc1ccccc1` [Example 3, 1-[1-[2-(S)-[[(1,1-Dimethylethoxy)carbonyl]amino]-3-(S)-methylpentyl]-L-homoproline]-L-isoleucine Benzylamide] displayed a concentration for half-maximal inhibition (IC50) in experiment [1] of 0.7 µM. Besides, in experiment [2], the “% Inhibition” value worked out at 30% and the “ΔAnkle Diameter” value amounted to 2.6 ± 0.4 mm. `CCC(C)[C@@H](CN1CCC[C@H]1C(=O)N[C@H](C(=O)NCc1ccccc1)[C@@H](C)CC)NC(=O)[C@@H](N)CC1CCCCC1` (stereo partly drawn) [Example 8] displayed a half-inhibitory concentration (IC50) in experiment [1] of 5 µM.

`CC[C@H](C)[C@@H](CN1CCCC[C@H]1C(=O)N[C@H](C(=O)NCc1ccccc1)[C@@H](C)OCc1ccccc1)NC(=O)OC(C)(C)C` [Example 19, 1-[1-[2-(S)-[[(1,1-Dimethylethoxy)carbonyl]amino]-3-(S)-methylpentyl]-L-homoproline]-L-threonene(O-Benzyl Ether)Benzylamide]: the IC50 in experiment [1] was found to be 17 µM. Further, in experiment [2], the “% Inhibition” value was 43% and the “ΔAnkle Diameter” value is on record as 2.1 ± 0.6 mm. For the compound `CCC(C)[C@@H](CN1CCC[C@H]1C(=O)N[C@H](C(=O)NCc1ccccc1)[C@@H](C)CC)NC(=O)[C@H](CC1CCCCC1)NC(=O)OC(C)(C)C` (stereo partly drawn) [Example 7, 1-[1-[2-(S)-[[2-(S)-[[(1,1-Dimethylethoxy)carbonyl]amino]-1-oxo-3-cyclohexylpropyl]amino]-3-methylpentyl]-L-proline]-L-isoleucine Benzylamide], the IC50 in experiment [1] was found to be 3 µM. As for `CC[C@H](C)[C@H](NC(=O)[C@@H]1CCCN1C[C@@H](NC(=O)OC(C)(C)C)[C@@H](C)CC)C(=O)NCc1ccccc1` [Example 6], the IC50 in experiment [1] amounted to 6 µM. In addition, in experiment [2], the “% Inhibition” value amounted to 4% and the “ΔAnkle Diameter” value was found to be 3.2 ± 0.3 mm.

`CC[C@H](C)[C@H](NC(=O)[C@@H]1CCCN1C[C@H](CC1CCCCC1)NC(=O)OC(C)(C)C)C(=O)NCc1ccccc1` [Example 16, 1-[1-[2-(S)-[[(1,1-dimethylethoxy)carbonyl]amino]-3-cyclohexylpropyl]-L-proline]-L-isoleucine Benzylamide] returned an IC50 in experiment [1] of 6 µM. Consider `CC[C@H](C)[C@H](NC(=O)[C@@H]1CCCN1C[C@H](CC(C)C)NC(=O)OC(C)(C)C)C(=O)NCc1ccccc1` [Example 2, 1-[1-[2-(S)-[[(1,1-Dimethylethoxy)carbonyl]amino]-4-methylpentyl]-L-proline]-L-isoleucine Benzylamide], for which the half-inhibitory concentration (IC50) in experiment [1] amounted to 7 µM.

Regarding `CC[C@H](C)[C@H](NC(=O)[C@@H]1CCCN1C[C@H](CC(C)C)NC(=O)[C@H](CC(N)=O)NC(=O)[C@H](Cc1ccccc1)NC(=O)OC(C)(C)C)C(=O)OCc1ccccc1` [Example 14, 1-[1-[2-(S)-[[1-[1-[(1,1-Dimethylethoxy)carbonyl]-L-phenylalanyl]-L-asparaginyl]amino]-4-methylpentyl]-L-proline]-L-isoleucine Phenylmethyl Ester], in experiment [1], the “inhibition of mitogen induced T-cell proliferation” value was “inhibited mitogen induced T-cell proliferation” and the IC50 is < 6 µM.

The record behind these values is patent US5385918A, “Aminomethylene-peptides as immunosuppressants” (Miles Inc., priority 1993, dated 1995).
